Assays:
Plutella xylostella = assay: Insecticidal test on Plutella xylostella (dip of Chinese cabbage seedlings with laid eggs); assay type: in vivo; conditions: 144 h, seedlings with laid eggs dipped about 30 seconds, 25° C., 6 days after dip treatment, read-out: insecticidal effect (corrected mortality rate), activity level
From the text: Insecticidal Test on Plutella xylostella
Adults of Plutella xylostella were released onto Chinese cabbage seedlings and allowed to lay eggs thereon. At 2 days after the release of the adults, the Chinese cabbage seedlings with laid eggs were dipped for about 30 seconds in agrochemical dispersions diluted to 500 ppm, each of which contained a different condensed heterocyclic compound represented by the general formula (1) of the present invention as an active ingredient. After air-dried, the seedlings were kept in a thermostatic chamber at 25° C. At 6 days after the dip treatment, the number of hatched larvae per plot was counted, the mortality rate was calculated according to the formula shown below, and the insecticidal effect was evaluated according to the criteria of Test Example 1. This test was conducted in triplicate using 10 adults of Plutella xylostella per plot. Corrected mortality rate (%)=100×(Number of hatched larvae in a non-treatment plot−Number of hatched larvae in a treatment plot)/Number of hatched larvae in a non-treatment plot [Math. 3]

Laodelphax striatella = assay: Insecticidal test on Laodelphax striatella (rice seedling dip); assay type: in vivo; conditions: Laodelphax striatellus, 192 h, rice seedlings dipped 30 seconds, 3rd-instar larvae, 8 days after inoculation, read-out: insecticidal effect (corrected mortality rate), activity level
From the text: Insecticidal Test on Laodelphax striatella
The condensed heterocyclic compounds represented by the general formula (1) of the present invention or salts thereof were separately dispersed in water and diluted to 500 ppm, and rice plant seedlings (variety: Nihonbare) were dipped in the agrochemical dispersions for 30 seconds. After air-dried, each seedling was put into a separate glass test tube and inoculated with ten 3rd-instar larvae of Laodelphax striatella, and then the glass test tubes were capped with cotton plugs. At 8 days after the inoculation, the numbers of surviving larvae and dead larvae were counted, the corrected mortality rate was calculated according to the formula shown below, and the insecticidal effect was evaluated according to the criteria of Test Example 1. Corrected mortality rate (%)=100×(Survival rate in a non-treatment plot−Survival rate in a treatment plot)/Survival rate in a non-treatment plot [Math. 2]

Compound | mortality at 500 ppm (Plutella xylostella) [%] | mortality at 500 ppm (Laodelphax striatella) [%]
CCS(=O)(=O)c1cc(C(F)(F)F)cnc1C1=Nc2cc(C(F)(F)F)cnc2C1(F)F [Compound 1-10, 2-(3-Ethylsulfonyl-5-trifluoromethylpyridin-2-yl)-3,3-difluoro-6-trifluoromethyl-3H-pyrrolo[3,2-b]pyridine] | 100 | 100
CCS(=O)(=O)c1cc(C(F)(F)F)ccc1C1=Nc2cc(C(F)(F)F)cnc2C1(F)F [Compound 1-1] | 100 | 100
CCS(=O)(=O)c1cc(-c2cccc(C(F)(F)F)c2)cnc1C1=Nc2cc(C(F)(F)F)cnc2C1(F)F [Compound 1-20, 2-(3-Ethylsulfonyl-5-(3-trifluoromethylphenyl)pyridin-2-yl)-3,3-difluoro-6-trifluoromethyl-3H-pyrrolo[3,2-b]pyridine] | 100 | 100
CC[S+]([O-])c1cc(C(F)(F)F)cnc1C1=Nc2cc(C(F)(F)F)cnc2C1(F)F (stereo not shown) [Compound 1-9, 2-(3-Ethylsulfinyl-5-trifluoromethylpyridin-2-yl)-3,3-difluoro-6-trifluoromethyl-3H-pyrrolo[3,2-b]pyridine] | 100 | 100
CCS(=O)(=O)c1cc(-c2ccc(F)cc2)cnc1C1=Nc2cc(C(F)(F)F)cnc2C1(F)F [Compound 1-19, 2-(3-Ethylsulfonyl-5-(4-fluorophenyl)pyridin-2-yl)-3,3-difluoro-6-trifluoromethyl-3H-pyrrolo[3,2-b]pyridine] | 100 | 100
